Results reported in patent publication US5066658A, “Substituted hydroxyureas” (Ortho Pharmaceutical Corporation, priority 1990, dated 1991).

How the values were obtained:
5-lipoxygenase = target: T1, 5-lipoxygenase (Rattus norvegicus, UniProt P12527); assay: Inhibition of 5-lipoxygenase in cell-free homogenate of rat basophilic leukemia (RBL-1) cells; format: biochemical; settings: RBL-1 cell-free homogenate; for inhibition at 3 µM: read-out: Inhibition of 5-Lipoxygenase, % Inh. @ 3 μM
T1 construct: The cell-free homogenate was prepared by sonication of the cells followed by centrifugation at 40,000 xg; endogenous in cells; host or cells: RBL-1 (rat basophilic leukemia) cells, 40,000 xg supernatant of the sonicate
T1 sequence (P12527 1-673): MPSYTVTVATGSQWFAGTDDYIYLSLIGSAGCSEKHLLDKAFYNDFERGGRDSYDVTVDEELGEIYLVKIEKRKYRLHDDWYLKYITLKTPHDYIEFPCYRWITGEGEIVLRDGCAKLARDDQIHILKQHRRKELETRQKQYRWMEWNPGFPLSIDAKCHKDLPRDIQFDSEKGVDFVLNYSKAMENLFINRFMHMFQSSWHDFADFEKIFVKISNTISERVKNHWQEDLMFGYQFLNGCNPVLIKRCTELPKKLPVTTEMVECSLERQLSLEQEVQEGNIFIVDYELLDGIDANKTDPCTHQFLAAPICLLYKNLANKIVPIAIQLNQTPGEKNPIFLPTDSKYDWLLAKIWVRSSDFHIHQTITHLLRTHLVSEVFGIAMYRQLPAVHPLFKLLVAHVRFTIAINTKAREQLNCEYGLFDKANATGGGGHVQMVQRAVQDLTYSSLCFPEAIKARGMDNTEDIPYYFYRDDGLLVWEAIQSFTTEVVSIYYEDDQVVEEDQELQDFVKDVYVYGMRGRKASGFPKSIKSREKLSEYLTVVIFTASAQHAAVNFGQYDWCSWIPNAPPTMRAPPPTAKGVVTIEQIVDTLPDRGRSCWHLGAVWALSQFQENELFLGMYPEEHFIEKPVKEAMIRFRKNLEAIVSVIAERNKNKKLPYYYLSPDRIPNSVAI
Protocol: The inhibition of 5-lipoxygenase was tested in a cell-free homogenate by the procedure of B. Jakschik et al., Biochem.Biophys.Res.Comm. 95, 103 (1980). Basically, rat basophilic leukemia cells (RBL-1 cells) were maintained in culture in a suitable medium, and were collected by centrifugation prior to assay. The cell-free homogenate was prepared by sonication of the cells followed by centrifugation at 40,000 xg. The CaCl2 dependent production of lipoxygenase products from ^14 C-arachidonic acid in the 40,000 xg supernatant was monitored in the presence of buffer (or other vehicle) or drug. Products were isolated by acidification and extraction, followed by thin layer chromatography. Radioactive areas corresponding to the authentic lipoxygenase products were quantitated by liquid scintillation counting. Data was reported as the IC50, the concentration causing 50% inhibition of the generation of lipoxygenase products. The results are shown it Table I as the percent inhibition at 3 μM or the amount of compound necessary to cause 50% inhibition.

[1] = test system: Arachidonate-Induced Ear Edema; assay: Arachidonic Acid-Induced Ear Edema Assay; format: in vivo; settings: topical, mouse ear; for inhibition in vivo at 0.4 mg: 400 μg topically; for inhibition in vivo at 0.2 mg: 200 μg topically
Protocol: The topical anti-inflammatory activity of a compound was determined by its ability to inhibit an experimentally-induced inflammation in the mouse ear. Basically, four milligrams of arachidonic acid in acetone were applied to the dorsal surface of one ear with a microliter pipette. The mice were sacrificed at various times after application of arachidonic acid (one-half to six hours). A section of each ear was removed with a 7 mm round punch and weighed on an electronic or analytical balance. The difference in weight between treated and untreated ears was determined. Compounds to be evaluated for anti-inflammatory activity can be incorporated directly into the irritant mixture or at various times prior to or after application of arachidonic acid.
The degree of anti-inflammatory activity is shown in Table I, and is expressed in terms of the percent inhibition of ear weight increase.

[2] = test system: Arachidonate-Induced Bronchospasm (cyclooxygenase); assay: Pulmonary Mechanics Assay: arachidonate-induced bronchospasm without indomethacin (indicative of cyclooxygenase inhibition); format: in vivo, male Hartley guinea pigs; settings: Cavia porcellus, guinea pig; for inhibition in vivo at 15 mg/kg: IV dosing, read-out: Inhibition of Arachidonate-Induced Bronchospasm (IV Dosing), % Inh. without Indomethacin
Protocol: (§1) The bronchodilating activity of the compounds was tested in a pulmonary mechanics assay. Basically, male Hartley guinea pigs (about 400-500 g) were anesthetized with urethane (2 g/kg, i.p.) and placed in a whole body Plethysmograph. Cannulations of a jugular vein and carotid artery were performed for compound administration and monitoring blood pressure, respectively. The trachea was cannulated for respiration at a constate volume via a miniature starling pump. A Validyne differential pressure transducer (±20 cm H2 O) sensed transpleural pressure via a 15 gauge needle inserted into the pleural cavity and a sidearm from the tracheal cannula. Tidal volume was sensed by another Validyne differential pressure transducer (±2 cm H2 O) from pressure changes inside the plethysmograph. An on-line Buxco pulmonary mechanics computer calculated air flow, dynamic lung compliance and lung resistance. The values were recorded on a print-out.
(§2) The guinea pigs were pretreated with succinyl choline (1.2 mg/kg, i.v.) to arrest spontaneous respiration. A control challenge of arachidonic acid (0.5-1.0 mg/kg, i.v.) was administered, and the animals were then dosed with the test compound by various routes. At least 10 minutes were allowed to expire between arachidonic acid challenges. A second challenge was given and compared to the control response. This comparison was indicative of cyclooxygenase inhibition. Indomethacin (10 mg/kg, i.v.) was administered immediately after the second challenge. A third challenge of a higher dose of arachidonic acid (5-10 mg/kg, i.v.) was given. This response was induced by SRS-A and compared to the responses elicited by a separate control group of animals. Activity was indicative of lipoxygenase inhibition. Propranolol (0.005 mg/kg. i.v.) may be given prior to the third challenge to enhance the response to SRS-A.
(§3) Bronchoconstriction induced by arachidonic acid with or without indomethacin was expressed as maximum percent change in dynamic lung compliance (Cdyn) and maximum percent increase in lung resistance (RL). Each guinea pig served as its own control for cyclooxygenase evaluation. The results are shown in Table I and are expressed as the percent inhibition of control.

[3] = test system: Arachidonate-Induced Bronchospasm (lipoxygenase); assay: Pulmonary Mechanics Assay: arachidonate-induced bronchospasm with indomethacin (SRS-A response, indicative of lipoxygenase inhibition); format: in vivo, male Hartley guinea pigs; settings: Cavia porcellus, guinea pig; for inhibition in vivo at 15 mg/kg: IV dosing, read-out: Inhibition of Arachidonate-Induced Bronchospasm (IV Dosing), % Inh. with Indomethacin
Protocol: as §1, §2, §3

[4] = read-out: Inhibition of Arachidonate-Induced Ear Edema, % Inh. (μg topically)
[5] = ID dosing, read-out: Inhibition of Arachidonate-Induced Bronchospasm (ID Dosing), % Inh. without Indomethacin
[6] = ID dosing, read-out: Inhibition of Arachidonate-Induced Bronchospasm (ID Dosing), % Inh. with Indomethacin

| SMILES | inhibition at 3 µM (5-lipoxygenase) | inhibition in vivo at 50 mg/kg [2, 5] | inhibition in vivo at 50 mg/kg [3, 6] | further results |
| --- | --- | --- | --- | --- |
| CCCCCCCCCCN(O)C(=O)NCC(=O)OCC [Example 3, N-(Ethoxycarbonyl)methyl-N'-decyl-N'-hydroxyurea] | 100% |  |  | inhibition in vivo at 0.4 mg [1, 4]: 51% |
| CCCCCCCCCN(O)C(=O)N(C)C [Example 8, N,N-Dimethyl-N'-nonyl-N'-hydroxyurea] | 93% |  |  | inhibition in vivo at 0.2 mg [1, 4]: 95% |
| CCCCCCCN(O)C(=O)N(C)C [Example 9, N,N-Dimethyl-N'-heptyl-N'-hydroxyurea] | 64% |  |  | Inhibition of Arachidonate-Induced Ear Edema, ED50 [1]: 55 µg |
| CCCCCCCCCC(C)(C)NC(=O)N(C)O [Example 20, N-(1,1-Dimethyldecyl)-N'-methyl-N'-hydroxyurea] | 65% |  |  | inhibition in vivo at 0.1 mg ([1]; 100 μg topically, read-out: Inhibition of Arachidonate-Induced Ear Edema, % Inh. (μg topically)): 47% |
| CCCCCCCCN1CCN(O)C1=O [Example 24, 1-Octyl-3-hydroxyimidazolidin-2-one] |  |  |  | IC50 (5-lipoxygenase): 5.2 µM; inhibition in vivo at 0.2 mg [1, 4]: 27% |
| CCCCCCCCCCN1CCCN(O)C1=O [Example 26, 1-Decyl-3-hydroxy-3,4,5,6-tetrahydro-lH-pyrimidin-2-one] |  |  |  | IC50 (5-lipoxygenase): 0.7 µM; inhibition in vivo at 0.4 mg [1, 4]: 30% |
| CCCCCCCCCCN1C(=O)N(O)CC1C(=O)OCC (centres unmarked) [Example 27, Ethyl 3-decyl-1-hydroxyimidazolidin-2-one-4-carboxylate] |  |  |  | IC50 (5-lipoxygenase): 1.4 µM; inhibition in vivo at 0.4 mg [1, 4]: 13% |
| CN(O)C(=O)NCCc1ccc2c(c1)OCO2 [Example 43, N-[2-(3,4-Methylenedioxy)phenyl)ethyl-N'-hydroxy-N'-methylurea] | 65% | < 20% | < 20% |  |
| CN(O)C(=O)NCCc1ccc(Cl)c(Cl)c1 [Example 50, N-[2-(3,4-Dichlorophenyl)ethyl]-N'-hydroxy-N'-methylurea] | 59% | < 20% | < 20% |  |

The next lines start with results.

| inhibition at 3 µM (5-lipoxygenase) | SMILES | inhibition in vivo at 50 mg/kg [2, 5] | inhibition in vivo at 50 mg/kg [3, 6] | further results |
| --- | --- | --- | --- | --- |
| 33% | COc1cccc(CCNC(=O)N(C)O)c1OC [Example 44, N-[2-(2,3-Dimethoxyphenyl)ethyl]-N'-hydroxy-N'-methylurea] | < 20% | 58% |  |
| 99% | COc1ccc(CCNC(=O)N(C)O)c(OC)c1 [Example 49, N-[2-(2,4-Dimethoxyphenyl)ethyl]-N'-hydroxy-N'-methylurea] |  |  | inhibition in vivo at 15 mg/kg [2]: 39%; inhibition in vivo at 15 mg/kg [3]: 67% |
| 0% | COc1ccc(CCN(C)C(=O)N(C)O)cc1OC [Example 53, N-[2-(3,4-Dimethyoxyphenyl)ethyl]-N'-hydroxy-N,N'-dimethylurea] |  |  | inhibition in vivo at 25 mg/kg ([2]; ID dosing, 25 mg/kg, read-out: Inhibition of Arachidonate-Induced Bronchospasm (ID Dosing), % Inh. without Indomethacin): 52%; inhibition in vivo at 15 mg/kg [2]: 79%; inhibition in vivo at 25 mg/kg ([3]; ID dosing, 25 mg/kg, read-out: Inhibition of Arachidonate-Induced Bronchospasm (ID Dosing), % Inh. with Indomethacin): 71%; inhibition in vivo at 15 mg/kg [3]: 51% |
| 42% | C=CCOc1ccc(CCNC(=O)N(C)O)cc1OC [Example 55] | -68% | 56% | inhibition in vivo at 15 mg/kg [2]: 56%; inhibition in vivo at 15 mg/kg [3]: 83% |
| 37% | COc1ccc(C2C3C=CC(C3)C2NC(=O)N(C)O)cc1OC (stereo not drawn) [Example 58, N-[trans-3-(3,4-Dimethoxyphenyl)bicyclo[2.2.1]-5-hepten-2-yl]-N'-hydroxy-N'-methylurea] | 35% | 68% |  |
| 51% | COc1cc2c(cc1OC)C(CNC(=O)N(C)O)CC2 (centres unmarked) [Example 60, N-[(5,6-Dimethoxyindan-1-yl)methyl]-N'-hydroxy-N'-methylurea] |  |  | inhibition in vivo at 15 mg/kg [2]: 48%; inhibition in vivo at 15 mg/kg [3]: 67% |
| 73% | COc1cc2c(cc1OC)CC(NC(=O)N(C)O)CC2 (centres unmarked) [Example 61, N-(6,7-Dimethoxy-1,2,3,4-tetrahydro-2-naphthyl)-N'-hydroxy-N'-methylurea] |  |  | inhibition in vivo at 15 mg/kg [2]: < 20%; inhibition in vivo at 15 mg/kg [3]: < 20% |
| 76% | COc1ccc(CCCN(CCCc2ccc(OC)c(OC)c2)C(=O)N(C)O)cc1OC [Example 63, N,N-Bis-[3-(3,4-dimethoxyphenyl)propyl]-N'-hydroxy-N'-methylurea] | < 20% | 21% |  |
| 19% | COc1ccc(CCCNC(=O)N(C)O)cc1OC [Example 65, N-[3-(3,4-Dimethoxyphenyl)propyl]-N'-hydroxy-N'-methylurea] | 52% | 59% | inhibition in vivo at 15 mg/kg [2]: 86%; inhibition in vivo at 15 mg/kg [3]: 89% |
| 69% | COc1cc(CCNC(=O)N(C)O)ccc1OCc1ccccc1 [Example 68, N-[2-(4-Benzyloxy-3-methoxyphenyl)ethyl]-N'-hydroxy-N'-methylurea] | < 20% | 28% |  |
| 39% | COc1cc(CCNC(=O)N(C)O)ccc1O [Example 70, N-[2-(4-Hydroxy-3-methoxyphenyl)ethyl]-N'-hydroxy-N'-methylurea] | < 20% | < 20% |  |
| 5% | COc1ccc(CCNC(=O)N(C)O)cc1O [Example 71, N-[2-(3-Hydroxy-4-methoxyphenyl)ethyl]-N'-hydroxy-N'-methylurea] | 77% | < 20% |  |
| 21% | COc1ccc(CCNC(=O)NO)cc1OC [Example 72, N-[2-(3,4-Dimethoxyphenyl)ethyl]-N'-hydroxyurea] | 50% | 56% |  |
